Assay results published in ChEMBL document CHEMBL1148929, “Phytochemical studies on Stemona burkillii prain: two new dihydrostemofoline alkaloids” (J Nat Prod, 2004).

Experiments:
[1] = tested on: Cladosporium cladosporioides; assay: Antifungal activity against Cladosporium cladosporioides assessed as inhibition of spore germination; assay type: functional, organism-based
Artemia = assay: Toxicity to brine shrimp; assay type: organism-based; settings: in vivo

`CC[C@H](O)C[C@@]12[C@@H]3C[C@H]4[C@H]5[C@H](C)/C(=C6/OC(=O)C(C)=C6OC)O[C@]5(O3)[C@H]1CCN42` [2'-HYDROXYSTEMOFOLINE] showed an EC50 [1] greater than 219 ppm and an LC50 (Artemia) greater than 33 ppm.
Compound `CCCC[C@@]12C3CCN1[C@H]1C[C@H]2O[C@@]32O/C(=C3\OC(=O)C(C)=C3OC)[C@@H](C)[C@H]12` [STEMOFOLINE] has an EC50 [1] greater than 219 ppm and an LC50 (Artemia) greater than 33 ppm.
